These results are taken from patent US20060135568A1, “Methods of treating microbial infections in humans and animals” (priority 2002, published 2006).

Entries after “also recorded” stand apart in the source; their conditions may differ.

This assay has as its system b-subunit of ATP synthase (atpF, Rv1306) and hsp (Rv0251c). Format: cell-based, M. bovis BCG (Pasteur strain, ATCC 35734).

Turning to `NNC(=O)c1ccncc1` [INH, isoniazid], the “overexpression of hsp and b-subunit of ATP synthase on 2-D gels” value (from here on “overexpression … on 2-D gels”) is on record as “Neither; also recorded: failed to result in overexpression”.

For `C/C=C/C/C=C/CCC(=O)[C@H]1O[C@H]1C(N)=O` [cerulenin], the “overexpression … on 2-D gels” value is “Neither; also recorded: failed to result in overexpression”.

On to `CCCCCCCCS(=O)(=O)CC(N)=O` [OSA, n-octanesulfonylacetamide], for which the “overexpression … on 2-D gels” value is “significant overexpression”; the “time to overexpression of both proteins post exposure” value was no more than 3.5 h.
